“And” between values parts separate entries of the source, which are not always exact repeats. Identical values can stand only once.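 Cells were grown in 96-well plates and exposed to each compound for 48 hours at five concentrations; endpoints were interpolated linearly between bracketing concentrations, or set to the highest concentration if not reached. GI50 = concentration required for 50% inhibition of growth. At the TGI there is no net growth.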 Bounds are passed on as bounds.

The text below walks through data of PubChem BioAssay (NCI).

Test systems include 786-0 renal; HOP-92 NSCLC; K-562 leukemia; MCF7 breast; OVCAR-3 ovarian; OVCAR-4 ovarian; SF-268 CNS; SF-539 CNS.
Common to all, as to experiment: NCI anticancer screen, dose series, 48 h

As for `NC(=O)C(NC=O)c1ccccc1` (centres undefined), the TGI in the experiment with 786-0 renal, in the experiment on HOP-92 NSCLC, in the experiment with K-562 leukemia, with MCF7 breast, in the experiment with OVCAR-3 ovarian and in the experiment on OVCAR-4 ovarian was > 100 µM each time. Besides, the TGI in the experiment with SF-268 CNS and in the experiment with SF-539 CNS was > 100 µM each time.
In the case of `CCCCN(CCCC)CCCN=c1nc2c(c(N)n1-c1ccccc1)c(=S)n(-c1ccccc1)c(=S)n2-c1ccccc1`, the GI50 with 786-0 renal is 0.501 µM; with HOP-92 NSCLC, 0.229 µM; with K-562 leukemia, 0.54 µM; with MCF7 breast, 0.361 µM; in the experiment on OVCAR-3 ovarian, 0.997 µM; with OVCAR-4 ovarian, 0.994 µM. Further, the GI50 with SF-268 CNS is 1.14 µM; with SF-539 CNS it was 1.36 µM. Also, the TGI is 1.08 µM with 786-0 renal; 0.83 µM with HOP-92 NSCLC; > 100 µM in the experiment on K-562 leukemia; 1.51 µM in the experiment with MCF7 breast; 2.3 µM in the experiment with OVCAR-3 ovarian; 2.46 µM with OVCAR-4 ovarian. Further, the TGI came to 2.47 µM in the experiment on SF-268 CNS and 2.84 µM in the experiment with SF-539 CNS.
`COC(=O)[C@H](CC(C)C)NC(=O)NC(=O)NC(=O)CI`: the GI50 in the experiment on 786-0 renal was 3.02 µM; in the experiment with HOP-92 NSCLC it was 2.14 µM; in the experiment on K-562 leukemia, 1.91 µM; in the experiment with MCF7 breast it was 1.8 µM; with OVCAR-3 ovarian, 1.99 µM; in the experiment with OVCAR-4 ovarian, 1.88 µM. Moreover, the GI50 in the experiment on SF-268 CNS is 11.3 µM; with SF-539 CNS, 3.16 µM. In addition, the TGI turned out to be 11.5 µM with 786-0 renal; 4.98 µM in the experiment on HOP-92 NSCLC; 4.6 µM in the experiment with K-562 leukemia; 4.33 µM in the experiment on MCF7 breast; 3.51 µM in the experiment on OVCAR-3 ovarian; 4.26 µM in the experiment with OVCAR-4 ovarian. The TGI in the experiment with SF-268 CNS is 29.1 µM; in the experiment with SF-539 CNS it was 12.2 µM.
On to `COc1cc([C@@H]2c3cc4c(cc3[C@@H](O[C@@H]3O[C@@H]5CO[C@@H](c6cccs6)O[C@H]5[C@H](O)[C@H]3O)[C@H]3COC(=O)[C@H]23)OCO4)cc(OC)c1O`, for which the GI50 with 786-0 renal is 0.193 µM; in the experiment with K-562 leukemia it was 0.411 µM; in the experiment with MCF7 breast, 0.0491 µM; in the experiment on OVCAR-3 ovarian it was 1.42 µM; with OVCAR-4 ovarian, 2.83 µM; with SF-268 CNS it was 0.266 µM. In addition, the GI50 with SF-539 CNS is 0.0972 µM. The TGI in the experiment on 786-0 renal is 1.34 µM; in the experiment with HOP-92 NSCLC it was 1.99 µM; with K-562 leukemia, > 100 µM; in the experiment with MCF7 breast, > 100 µM; in the experiment with OVCAR-3 ovarian, 5.45 µM; with OVCAR-4 ovarian, 37.4 µM. In addition, the TGI with SF-268 CNS was 7.2 µM; in the experiment on SF-539 CNS it was 0.432 µM.
`N#Cc1c(NC(=O)CN2CCOCC2)sc2c1CCCC2`: the GI50 in the experiment on 786-0 renal, in the experiment on HOP-92 NSCLC, in the experiment with K-562 leukemia, in the experiment with MCF7 breast, with OVCAR-3 ovarian and with OVCAR-4 ovarian was > 25 µM in each case. Besides, the GI50 with SF-268 CNS and in the experiment with SF-539 CNS was > 25 µM each time. Besides, the TGI in the experiment with 786-0 renal, in the experiment on HOP-92 NSCLC, in the experiment on K-562 leukemia, in the experiment with MCF7 breast, with OVCAR-3 ovarian and with OVCAR-4 ovarian was > 25 µM throughout. Besides, the TGI with SF-268 CNS and in the experiment on SF-539 CNS was > 25 µM in each case.
For `CN(C)CCCNc1nccc(-c2c(-c3ccc(F)cc3)nn3cc(C(F)(F)F)ccc23)n1`, the GI50 with 786-0 renal was 7.69 µM; in the experiment on HOP-92 NSCLC, 3.61 µM; in the experiment with K-562 leukemia it was 4.81 µM; in the experiment with MCF7 breast, 7.77 µM; with OVCAR-3 ovarian it was 8.88 µM; in the experiment with OVCAR-4 ovarian it was 11 µM. Besides, the GI50 in the experiment on SF-268 CNS is 9.79 µM; with SF-539 CNS it was 15.5 µM. For the same compound, the TGI in the experiment with 786-0 renal was > 25 µM; with HOP-92 NSCLC, > 25 µM; in the experiment with K-562 leukemia, 14.2 µM; in the experiment on MCF7 breast, > 18.2 µM; with OVCAR-3 ovarian, > 25 µM; in the experiment with OVCAR-4 ovarian, > 25 µM. Besides, the TGI in the experiment with SF-268 CNS and with SF-539 CNS was > 25 µM each time.
Turning to `CC1=C(/C=C/C(C)=C/C=C/C(C)=C/C(=O)Nc2ccc(O)cc2)C(C)(C)CCC1`, the GI50 was 1.72 µM with 786-0 renal; 1.77 µM in the experiment with HOP-92 NSCLC; 1.38 µM with K-562 leukemia; 1.4 µM in the experiment with MCF7 breast; 1.5 µM with OVCAR-3 ovarian; 2.6 µM in the experiment with OVCAR-4 ovarian. Further, the GI50 was 1.52 µM with SF-268 CNS and 0.355 µM in the experiment with SF-539 CNS. Also, the TGI is 4.36 µM and 10.9 µM in the experiment on 786-0 renal; 4.1 µM and 6.11 µM with HOP-92 NSCLC; 4.28 µM and > 40.4 µM in the experiment on K-562 leukemia; 9.59 µM and 12.9 µM in the experiment with MCF7 breast; 3.13 µM and 7.54 µM in the experiment with OVCAR-3 ovarian; 9.53 µM and 14.8 µM in the experiment on OVCAR-4 ovarian. The TGI in the experiment on SF-268 CNS was 3.94 µM and 14.2 µM; with SF-539 CNS it was 1.73 µM and 3.39 µM.
Take `COC(=O)c1ccc([N+](=O)[O-])c(O)c1`: the TGI with 786-0 renal, in the experiment with HOP-92 NSCLC, in the experiment with K-562 leukemia, with MCF7 breast, in the experiment with OVCAR-3 ovarian and in the experiment with OVCAR-4 ovarian was > 100 µM in each case. Further, the TGI in the experiment on SF-268 CNS and in the experiment with SF-539 CNS was > 100 µM in each case.
Take `C#COc1cccc(Nc2ncnc3ncc(NC(=O)CCl)cc23)c1`: the GI50 in the experiment on 786-0 renal was 2.71 µM; with HOP-92 NSCLC, > 62.5 µM; in the experiment with MCF7 breast, > 16.6 µM; in the experiment on OVCAR-3 ovarian, > 25 µM; with OVCAR-4 ovarian, > 62.5 µM; in the experiment on SF-268 CNS, > 22.3 µM. Moreover, the GI50 in the experiment with SF-539 CNS was > 21.8 µM. Further, the TGI in the experiment with 786-0 renal, with HOP-92 NSCLC, with K-562 leukemia, in the experiment with MCF7 breast, with OVCAR-3 ovarian and with OVCAR-4 ovarian was > 62.5 µM throughout. Moreover, the TGI is > 62.5 µM in the experiment on SF-268 CNS and > 53.2 µM in the experiment on SF-539 CNS.
Turning to `CN1c2ccccc2S(=O)(=O)n2c(COc3ccc(Cl)cc3)nnc21`, the TGI is > 100 µM in the experiment on 786-0 renal; 63.2 µM in the experiment on HOP-92 NSCLC; > 100 µM in the experiment on K-562 leukemia; > 100 µM with MCF7 breast; > 100 µM with OVCAR-3 ovarian; > 100 µM in the experiment with OVCAR-4 ovarian. The TGI in the experiment with SF-268 CNS and in the experiment on SF-539 CNS was > 100 µM in each case.
